Assay results taken from patent US11744273B2, “Sweetness enhancing volatile compositions and methods of increasing perceived sweetness of a comestible” (University of Florida Research Foundation, Inc., priority 2016, dated 2023).

What was measured:
Type in all cases: in vivo, human
[1] = test system: perceived sweetness intensity; assay: Strawberry consumer panel; revised partial least squares regression against sweetness intensity (Table 6)
Procedure: (§1) All consumer panels were approved by the University of Florida Institutional Review Board. […] Ages of panelist ranged from 18 to 71, with a median age of 24. Panelists self-classified themselves as 98 White or Caucasian, 11 Black or African-American, 1 Native American, Alaska Native or Aleutian, 41 Asian/Pacific Islander, and 15 Other. […] Fresh, fully-ripe strawberry fruit was removed from overnight 4° C. dark storage and allowed to warm to room temperature prior to sensory analysis. Each panelist was given one to two whole strawberries for evaluation, depending on cultivar availability. Panelist took a bite of each sample, chewed, and swallowed it. Ratings for overall liking and liking for texture were scaled on hedonic general labeled magnitude scale (gLMS) in the context of all pleasure/displeasure experiences. […] Scales were employed to mediate valid comparisons across subjects and sessions.
For the second analysis, partial least squares regression analysis was used to identify more correlations to sweetness independent of sugars.

perceived sweetness = assay: Tomato taste panel; initial multiple regression of volatiles against perceived sweetness (Table 3); settings: for association with sweetness / association with sweetness after accounting for fructose: tomato; for association with sweetness: univariate models
Procedure: (§2) Fully ripe fruit were harvested, and used for taste panels. A random subset of fruit was used for biochemical analysis. Three biological replicates, each consisting of 2-20 fruit (depending on fruit size), were assayed for each variety. […] Panelists were between the ages of 18 and 78 with a median age of 22. […] An average of 85 (range of 66-95) of these panelists evaluated between 4-6 varieties in a session. All panelists went through a training session to familiarize them with the scaling and procedures. Tomatoes were sliced into wedges (or in halves for grape/cherry types) and each panelist was given two pieces for evaluation. Panelists took a bite of each sample, chewed and swallowed it, and rated overall liking and liking for texture. They then rated the perceived intensities of sweetness, sourness, saltiness, umami sensation, bitterness and overall tomato flavor. They were free to take as many bites as necessary to complete the assessments. They were instructed to take a bite of an unsalted cracker and a sip of water between samples. Samples were presented to the panelists in a randomized order. Hedonic ratings used the hedonic gLMS. This scale assesses the liking for tomatoes in the context of all pleasure/displeasure experiences: 0=neutral, −100=strongest disliking of any kind experienced, and +100=strongest liking of any kind experienced. Sensory intensity ratings used the gLMS (7,8,19). This scale assesses taste and flavor sensations in the context of all sensory experience (7): 0=no sensation, 100=strongest sensation of any kind experienced. Both scales were devised to provide valid comparisons across subjects.
(§3) The 68 chemical compounds measured in this experiment were initially divided into six groups based upon biochemical properties: sugars, branched chain amino acids, lipids, carotenoids, phenolics, and acids. A small number of compounds for which biosynthetic pathways are not established were assigned to one of the six classes based upon their correlations with other classified compounds. All pairwise correlations among the set of 68 compounds were calculated. Correlation coefficients were sorted using Modulated Modularity Clustering (MMC) (9) as a visual aid for identifying compounds that are closely related in this sample. Biochemical groups were examined for compounds within the group that were highly correlated and compounds that were upstream in the relevant metabolic pathways were preferentially selected.
(§4) All analyses were performed in SAS v 9.2.
In conducting the multiple regression analysis on the tomato data set, the independent variables were the sugar content (glucose+fructose), and the flavor (indicated by the retronasal perception of volatiles), while the dependent variable was the perceived sweetness.

flavor intensity = assay: Tomato taste panel; association of compounds with tomato flavor intensity; settings: for association with flavor intensity: univariate models
Procedure: as §2, §3, §4
Due to the large number of chemicals potentially influencing liking, a multivariate analysis of the data was performed. The attributes were initially partitioned into six groups based upon chemical properties and biosynthetic pathways: sugars, branched chain amino acids, fatty acids, carotenoids, phenolics, and acids. […] Groups of structurally related chemicals with known metabolic links were examined for compounds within each module that were highly colinear and compounds that were upstream in relevant metabolic pathways were preferentially selected.

[2] = test system: perceived sweetness intensity; assay: Strawberry consumer panel; initial multiple regression of volatiles against perceived sweetness intensity independent of glucose, fructose or sucrose (Table 5); settings: for FRUCTOSE t RATIO / GLUCOSE t RATIO / SUCROSE t RATIO: standard least squares; for FRUCTOSE t RATIO: sweetness intensity independent of fructose; for GLUCOSE t RATIO: sweetness intensity independent of glucose; for SUCROSE t RATIO: sweetness intensity independent of sucrose; for relation to sweetness intensity independent of sugars: initial step-wise multiple regression
Procedure: Step-wise multiple regressions of all volatile compounds against perceived intensity of sweetness is performed independent of either glucose, fructose, or sucrose concentration, separately (Table 5).
At least 100 grams or seven berries of each sample were removed from 4° C. dark overnight storage prior to volatile collection. Samples were homogenized in a blender prior to splitting into three 15 gram replicates for immediate capturing of volatile emission and remainder of sample frozen in N2 (I) and stored at −80° C. for later sugar and acid quantification.
Oven temperatures programmed from 40° C. (0.5 min hold) at 5° C. min^−1 to 250° C. (4 min hold). Signals captured with a flame ionization detector (FID) at 280° C. Peaks from FID signal were integrated manually with Chemstation B.04.01 software (Agilent Technologies, Santa Clara, Calif.). Volatile emission (ng gFW^−1 h^−1) calculated based on individual peak area relative to sample elution standard peak area.
as §1
For the first analysis, individual volatile compound concentrations were regressed using the “enter” method in SPSS Statistics (IBM Corp, Armonk, N.Y., USA).

[3] = strawberry volatile concentration regressed against perceived sweetness intensity independent of fructose, partial least squares regression
[4] = strawberry volatile concentration regressed against perceived sweetness intensity independent of glucose, partial least squares regression
[5] = strawberry volatile concentration regressed against perceived sweetness intensity independent of sucrose, partial least squares regression

## C=C[C@]1(C)CC[C@H](C(C)(C)O)O1 [(Z)-Linalool oxide]
[1]; [3]
  t Ratio (Fructose): 1.868
[1]; [4]
  t Ratio (Glucose): 1.561
[1]; [5]
  t Ratio (Sucrose): 1.954

## CCCCCCC=O [heptaldehyde]
Perceived sweetness
  association with sweetness: showed evidence for association with sweetness

## C=CC(=O)CCCCC [1-octen-3-one]
Flavor intensity
  association with flavor intensity after accounting for fructose: significant after accounting for fructose
  association with flavor intensity: associated with flavor intensity

## CCCCCCC1CCC(=O)O1 (stereo not drawn) [γ-Decalactone]
[1]; [3]
  t Ratio (Fructose): 1.246
[1]; [4]
  t Ratio (Glucose): 0.88
[1]; [5]
  t Ratio (Sucrose): 1.650

## COc1ccccc1O [guaiacol]
Perceived sweetness
  association with sweetness: showed evidence for association with sweetness

## CCC(C)C=O (stereo not drawn) [2-methylbuteraldehyde, 2-methylbutanal]
Perceived sweetness
  association with sweetness after accounting for fructose: significant after accounting for fructose
  association with sweetness: showed evidence for association with sweetness
Flavor intensity
  association with flavor intensity after accounting for fructose: significant after accounting for fructose
  association with flavor intensity: associated with flavor intensity

## CC(C)=CCC/C(C)=C/C=O [geranial]
Perceived sweetness
  association with sweetness after accounting for fructose: significant after accounting for fructose
  association with sweetness: showed evidence for association with sweetness
Flavor intensity
  association with flavor intensity: associated with flavor intensity

## O=C(O)CC(O)(CC(=O)O)C(=O)O [citric acid]
Flavor intensity
  association with flavor intensity after accounting for fructose: significant after accounting for fructose
  association with flavor intensity: associated with flavor intensity

## CC1(C)[C@H]2CC=C(C=O)[C@@H]1C2 [Myrtenal]
[1]; [3]
  t Ratio (Fructose): 2.588
[1]; [4]
  t Ratio (Glucose): 2.455
[1]; [5]
  t Ratio (Sucrose): −1.323

## c1ccc2scnc2c1 [benzothiazole]
Flavor intensity
  association with flavor intensity: associated with flavor intensity

## CCCCCC=CC=O [2-Octenal]
[1]; [3]
  t Ratio (Fructose): −0.171
[1]; [4]
  t Ratio (Glucose): 0.292
[1]; [5]
  t Ratio (Sucrose): 2.052

## CC/C=C\CCO [cis-3-hexen-1-ol]
Perceived sweetness
  association with sweetness: showed evidence for association with sweetness
Flavor intensity
  association with flavor intensity after accounting for fructose: significant after accounting for fructose
  association with flavor intensity: associated with flavor intensity

## CCCCC/C=C/C=C/C=O [trans,trans-2,4-decadienal]
Flavor intensity
  association with flavor intensity after accounting for fructose: significant after accounting for fructose
  association with flavor intensity: associated with flavor intensity

## C=CCc1ccc(O)c(OC)c1 [eugenol]
Perceived sweetness
  association with sweetness: showed evidence for association with sweetness

## CCCCC(=O)OC [624-24-8]
[2]
  FRUCTOSE t RATIO: −0.406
  GLUCOSE t RATIO: −0.416
  SUCROSE t RATIO: 0.662

## CCCCOC(C)=O [butyl acetate]
Perceived sweetness
  association with sweetness: showed evidence for association with sweetness
Flavor intensity
  association with flavor intensity: associated with flavor intensity

## CCCCC/C=C\CCC=O [cis-4-decenal]
Perceived sweetness; tomato volatiles, multiple regression, contribution to sweetness independent of the measures of sugar
  t: 0.582

## O=C(CO)[C@@H](O)[C@H](O)[C@H](O)CO [fructose]
Perceived sweetness
  association with sweetness: showed evidence for association with sweetness
Flavor intensity
  association with flavor intensity: associated with flavor intensity

## CCCCCC=O [66-25-1]
[2]
  FRUCTOSE t RATIO: 1.229
  GLUCOSE t RATIO: 1.178
  SUCROSE t RATIO: 0.21

## CC(=O)OCCC(C)C [123-92-2]
[2]
  FRUCTOSE t RATIO: −0.725
  GLUCOSE t RATIO: −0.771
  SUCROSE t RATIO: 0.108

## C=CC(=O)CC [1-penten-3-one]
[2]
  relation to sweetness intensity independent of sugars: enhance sweetness intensity

## CCC(C)COC(C)=O (stereo not drawn) [624-41-9]
[2]
  FRUCTOSE t RATIO: −0.433
  GLUCOSE t RATIO: −0.494
  SUCROSE t RATIO: −1.323

## Methyl thiolacetate
[1]; [3]
  t Ratio (Fructose): 0.476
[1]; [4]
  t Ratio (Glucose): 0.416
[1]; [5]
  t Ratio (Sucrose): 1.037

## CCCCCCCCOC(=O)C(C)CC (stereo not drawn) [Octyl 2-methyl butyrate]
[1]; in vivo
  t Ratio (Fructose): 0.015
  t Ratio (Glucose): −0.099
  t Ratio (Sucrose): 0.357

## CCCCC/C=C/C=O [2548-87-0]
[2]
  FRUCTOSE t RATIO: 1.76
  GLUCOSE t RATIO: 1.509
  SUCROSE t RATIO: 0.067

## CCCCCCC/C=C/C=O [3913-81-3]
[2]
  FRUCTOSE t RATIO: 3.694
  GLUCOSE t RATIO: 3.494
  SUCROSE t RATIO: 1.411

## C=C(C)C1CC=C(COC(C)=O)CC1 (stereo not drawn) [Perillyl acetate]
[1]; [3]
  t Ratio (Fructose): 0.231
[1]; [4]
  t Ratio (Glucose): 0.193
[1]; [5]
  t Ratio (Sucrose): 0.927

## CCC(C)OC(C)=O (stereo not drawn) [sec-butyl acetate]
Flavor intensity
  association with flavor intensity after accounting for fructose: significant after accounting for fructose

## CCCCC=O [110-62-3]
[2]
  FRUCTOSE t RATIO: −0.572
  GLUCOSE t RATIO: −0.568
  SUCROSE t RATIO: 0.997

## O=CCc1ccccc1 [phenylacetaldehyde]
Perceived sweetness
  association with sweetness: showed evidence for association with sweetness

## CC(=O)OCC=C(C)C [prenyl acetate, 3-methyl-2-buten-1-yl acetate]
[2]
  relation to sweetness intensity independent of sugars: negatively related to sweetness

## CCCCCCCCCCOC(=O)CCC [5454-09-1]
[2]
  FRUCTOSE t RATIO: 1.804
  GLUCOSE t RATIO: 1.579
  SUCROSE t RATIO: 2.085

## CC=C(C)C(=O)OCC [55514-48-2]
[2]
  FRUCTOSE t RATIO: −0.644
  GLUCOSE t RATIO: −0.675
  SUCROSE t RATIO: −0.889

## CCCC(=O)SC [2432-51-1]
[2]
  FRUCTOSE t RATIO: −0.956
  GLUCOSE t RATIO: −1.092
  SUCROSE t RATIO: 2.033

## CCCCCCCCCC(=O)OCC [110-38-3]
[2]
  FRUCTOSE t RATIO: 0.281
  GLUCOSE t RATIO: 0.055
  SUCROSE t RATIO: 2.621

## CC1C=CC2C(C1)C2(C)C (stereo not drawn) [4-carene]
Perceived sweetness
  association with sweetness: showed evidence for association with sweetness
